Data on 5 molecules can be found in patent publication US20020150629A1, “Zinc-supplementary compositions for oral administration” (priority 2000, published 2002).

The nature of the data set: Bioavailability of zinc after administration to the duodenum of rats (plasma zinc AUC vs intravenous zinc acetate). The settings on record: for absorption promoting action (in words): 10 mg/kg. How it is done: Wistar rats of 8 weeks age were used in this experiment. The rats were fasted for 24 hours before administration of zinc acetate alone, a mixture of zinc acetate and a dipeptide listed in Table 1 at a molar ratio of dipeptide to zinc of 1:1, or a complex of zinc and L- or D-carnosine at a molar ratio of dipeptide to complex of 1:1. Each test composition was administered to the duodenum of ether-anesthetized rat as a solution or suspension in physiological saline. The dose of the composition was 10 mg/kg body weight as zinc in each case. Blood samples were collected before administration, and 1,3,5 and 7 hours after the administration. Plasma levels of zinc were determined using Zn Test Wako Kit (available from Wako Pure Chemical Industries, Ltd.). […] The bioavailability (BA) of zinc was calculated by the above comparison.
Using the same method as above, the bioavailability of zinc was determined at varying molar ratios of L-carnosine to zinc from zero to 30. The results are shown in FIG. 1 of the accompanying drawings.
The dose of a 1:1 molar mixture of L-carnosine and zinc acetate was varied from 3 mg/kg to 100 mg/kg in terms of zinc. Analogous to Part 1, AUCs and bioavalabilities were determined and compared with those of administration of zinc acetate alone. The results are shown in FIG. 2 of the accompanying drawing.

As for `NCCC(=O)N[C@H](Cc1cnc[nH]1)C(=O)O` [D-carnosine], the “absorption promoting action (in words)” value (rat, in vivo) is given as “not”.

`NCCC(=O)N[C@@H](Cc1cnc[nH]1)C(=O)O` [L-carnosine, N-β-alanyl-L-histidine]: under “rat, in vivo”, the “bioavailability of zinc at varying molar ratios of L-carnosine to zinc (FIG. 1)” value was “increased with increase in the molar ratio” and the “absorption promoting action (in words)” value is on record as “exhibited a similar absorption promoting action”.

Consider `CC(=O)[O-].CC(=O)[O-].[Zn+2]` [Zinc acetate], for which the “BA (%) bioavailability of zinc” value (fasted Wistar rats, administered to the duodenum, 10 mg/kg as zinc, dipeptide:zinc 1:1, AUC up to 7 hours vs i.v. zinc acetate 1 mg/kg) is recorded as 8.6 ± 0.3%.

For D-carnosine zinc complex, for the setting “rat, in vivo”, the “BA (%) bioavailability of zinc” value was determined as 6.7 ± 0.8%.

Regarding L-carnosine zinc complex, for the setting “rat, in vivo”, the “BA (%) bioavailability of zinc” value came out at 11.7 ± 0.4 %.
